Laboratory results taken from the kinase profiling compilation of Christmann-Franck et al. (2016).

Tests used:
Assay in all cases: KINOMEscan competition binding
Settings in all cases: compound 10.0 µM
CDC2L2 (human) = CDC2L2 (human) (UniProt Q9UQ88)
FGR (human) = FGR (human) (UniProt P09769)
DDR2 (human) = DDR2 (human) (UniProt Q16832)
MAPKAPK5 (human) = MAPKAPK5 (human) (UniProt Q8IW41)
RPS6KA6 KD2 (human) = RPS6KA6 KD2 (human) (UniProt Q9UK32)
SRMS (human) = SRMS (human) (UniProt Q9H3Y6)
MAPK15 (human) = MAPK15 (human) (UniProt Q8TD08)
RET (human) = RET (human) (UniProt P07949)
CDK3 (human) = CDK3 (human) (UniProt Q00526)
MST4 (human) = MST4 (human) (UniProt Q9P289)
DYRK1B (human) = DYRK1B (human) (UniProt Q9Y463)
FGFR3 (human) = FGFR3 (human) (UniProt P22607)
ADCK3 (human) = ADCK3 (human) (UniProt Q8NI60)
CDC42BPB (human) = CDC42BPB (human) (UniProt Q9Y5S2)
SRPK3 (human) = SRPK3 (human) (UniProt Q9UPE1)
FRK (human) = FRK (human) (UniProt P42685)
ERBB2 (human) = ERBB2 (human) (UniProt P04626)
AURKB (human) = AURKB (human) (UniProt Q96GD4)
PRKD1 (human) = PRKD1 (human) (UniProt Q15139)
ULK3 (human) = ULK3 (human) (UniProt Q6PHR2)
MAPK1 (human) = MAPK1 (human) (UniProt P28482)
LATS1 (human) = LATS1 (human) (UniProt O95835)
TGFBR1 (human) = TGFBR1 (human) (UniProt P36897)
CLK2 (human) = CLK2 (human) (UniProt P49760)
PIK3CD (human) = PIK3CD (human) (UniProt O00329)
AKT2 (human) = AKT2 (human) (UniProt P31751)
ACVR2A (human) = ACVR2A (human) (UniProt P27037)
DAPK2 (human) = DAPK2 (human) (UniProt Q9UIK4)
HIPK1 (human) = HIPK1 (human) (UniProt Q86Z02)
MAP3K5 (human) = MAP3K5 (human) (UniProt Q99683)
ULK2 (human) = ULK2 (human) (UniProt Q8IYT8)
ERBB4 (human) = ERBB4 (human) (UniProt Q15303)
MAPK14 (human) = MAPK14 (human) (UniProt Q16539)
TLK2 (human) = TLK2 (human) (UniProt Q86UE8)
PKN2 (human) = PKN2 (human) (UniProt Q16513)
PHKG1 (human) = PHKG1 (human) (UniProt Q16816)
PRKG1 (human) = PRKG1 (human) (UniProt Q13976)
CAMK2B (human) = CAMK2B (human) (UniProt Q13554)
LIMK2 (human) = LIMK2 (human) (UniProt P53671)
RPS6KA6 KD1 (human) = RPS6KA6 KD1 (human) (UniProt Q9UK32)

FGFR3 (human), sequence (P22607 whole entry, looked up): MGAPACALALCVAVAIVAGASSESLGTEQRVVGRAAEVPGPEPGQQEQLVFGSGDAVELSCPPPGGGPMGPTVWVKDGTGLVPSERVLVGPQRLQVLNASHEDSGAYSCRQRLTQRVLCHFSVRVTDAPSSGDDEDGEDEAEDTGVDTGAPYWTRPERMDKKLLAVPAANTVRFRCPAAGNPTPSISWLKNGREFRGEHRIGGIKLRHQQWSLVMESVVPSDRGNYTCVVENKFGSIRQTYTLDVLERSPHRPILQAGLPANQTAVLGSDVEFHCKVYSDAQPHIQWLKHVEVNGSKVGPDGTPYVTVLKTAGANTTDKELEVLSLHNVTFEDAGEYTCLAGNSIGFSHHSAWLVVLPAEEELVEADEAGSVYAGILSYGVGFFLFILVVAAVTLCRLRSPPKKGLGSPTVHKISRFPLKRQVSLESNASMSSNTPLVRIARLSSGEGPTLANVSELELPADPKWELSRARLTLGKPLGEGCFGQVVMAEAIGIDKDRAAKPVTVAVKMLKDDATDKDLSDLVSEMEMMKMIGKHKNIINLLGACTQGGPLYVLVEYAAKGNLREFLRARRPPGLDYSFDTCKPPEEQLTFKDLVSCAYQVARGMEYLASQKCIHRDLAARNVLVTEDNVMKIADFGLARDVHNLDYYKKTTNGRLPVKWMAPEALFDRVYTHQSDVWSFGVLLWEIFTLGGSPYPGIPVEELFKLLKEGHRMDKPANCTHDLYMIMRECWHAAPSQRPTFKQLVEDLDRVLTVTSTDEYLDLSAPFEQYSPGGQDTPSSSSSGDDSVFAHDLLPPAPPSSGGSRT
LIMK2 (human), sequence (P53671 whole entry, looked up): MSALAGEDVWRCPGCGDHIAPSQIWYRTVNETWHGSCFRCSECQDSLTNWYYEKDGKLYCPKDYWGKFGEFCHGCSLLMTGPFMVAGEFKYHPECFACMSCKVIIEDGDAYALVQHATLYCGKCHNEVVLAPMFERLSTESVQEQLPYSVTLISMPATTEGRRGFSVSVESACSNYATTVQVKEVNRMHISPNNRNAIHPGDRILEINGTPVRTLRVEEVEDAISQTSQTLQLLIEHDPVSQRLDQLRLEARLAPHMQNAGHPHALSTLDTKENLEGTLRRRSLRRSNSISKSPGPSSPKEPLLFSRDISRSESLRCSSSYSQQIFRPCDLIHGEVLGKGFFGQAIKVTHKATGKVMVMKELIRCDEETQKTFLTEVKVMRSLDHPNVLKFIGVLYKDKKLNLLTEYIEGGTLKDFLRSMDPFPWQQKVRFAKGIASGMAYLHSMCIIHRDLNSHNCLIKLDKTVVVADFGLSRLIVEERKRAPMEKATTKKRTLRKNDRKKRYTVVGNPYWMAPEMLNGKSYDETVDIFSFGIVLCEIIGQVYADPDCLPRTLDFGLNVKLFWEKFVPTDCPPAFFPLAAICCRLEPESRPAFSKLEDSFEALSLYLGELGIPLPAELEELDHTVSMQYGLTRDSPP
AURKB (human), sequence (Q96GD4 whole entry, looked up): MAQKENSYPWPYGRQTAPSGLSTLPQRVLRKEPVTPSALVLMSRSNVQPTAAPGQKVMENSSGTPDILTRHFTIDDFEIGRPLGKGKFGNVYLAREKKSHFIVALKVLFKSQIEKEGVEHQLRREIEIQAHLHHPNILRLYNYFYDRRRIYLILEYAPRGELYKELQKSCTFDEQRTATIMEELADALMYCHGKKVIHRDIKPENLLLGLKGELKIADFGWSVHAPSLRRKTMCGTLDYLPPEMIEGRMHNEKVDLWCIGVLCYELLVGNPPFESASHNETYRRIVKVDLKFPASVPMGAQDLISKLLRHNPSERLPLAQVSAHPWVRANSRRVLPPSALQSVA
SRPK3 (human), sequence (Q9UPE1 whole entry, looked up): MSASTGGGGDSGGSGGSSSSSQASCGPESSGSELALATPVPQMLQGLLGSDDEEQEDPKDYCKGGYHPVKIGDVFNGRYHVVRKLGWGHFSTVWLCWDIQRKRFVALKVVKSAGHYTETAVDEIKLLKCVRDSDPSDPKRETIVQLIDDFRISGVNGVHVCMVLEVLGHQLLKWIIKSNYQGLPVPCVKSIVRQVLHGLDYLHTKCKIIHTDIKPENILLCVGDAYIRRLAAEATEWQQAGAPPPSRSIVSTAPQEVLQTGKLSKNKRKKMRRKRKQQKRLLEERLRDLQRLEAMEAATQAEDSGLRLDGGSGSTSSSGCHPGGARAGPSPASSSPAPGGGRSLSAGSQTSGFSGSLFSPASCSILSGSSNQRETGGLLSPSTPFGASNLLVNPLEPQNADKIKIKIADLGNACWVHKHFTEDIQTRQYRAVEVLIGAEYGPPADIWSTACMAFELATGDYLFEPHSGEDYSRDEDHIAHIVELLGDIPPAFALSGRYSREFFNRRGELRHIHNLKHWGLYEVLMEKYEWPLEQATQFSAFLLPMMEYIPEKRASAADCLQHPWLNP
RET (human), sequence (P07949 whole entry, looked up): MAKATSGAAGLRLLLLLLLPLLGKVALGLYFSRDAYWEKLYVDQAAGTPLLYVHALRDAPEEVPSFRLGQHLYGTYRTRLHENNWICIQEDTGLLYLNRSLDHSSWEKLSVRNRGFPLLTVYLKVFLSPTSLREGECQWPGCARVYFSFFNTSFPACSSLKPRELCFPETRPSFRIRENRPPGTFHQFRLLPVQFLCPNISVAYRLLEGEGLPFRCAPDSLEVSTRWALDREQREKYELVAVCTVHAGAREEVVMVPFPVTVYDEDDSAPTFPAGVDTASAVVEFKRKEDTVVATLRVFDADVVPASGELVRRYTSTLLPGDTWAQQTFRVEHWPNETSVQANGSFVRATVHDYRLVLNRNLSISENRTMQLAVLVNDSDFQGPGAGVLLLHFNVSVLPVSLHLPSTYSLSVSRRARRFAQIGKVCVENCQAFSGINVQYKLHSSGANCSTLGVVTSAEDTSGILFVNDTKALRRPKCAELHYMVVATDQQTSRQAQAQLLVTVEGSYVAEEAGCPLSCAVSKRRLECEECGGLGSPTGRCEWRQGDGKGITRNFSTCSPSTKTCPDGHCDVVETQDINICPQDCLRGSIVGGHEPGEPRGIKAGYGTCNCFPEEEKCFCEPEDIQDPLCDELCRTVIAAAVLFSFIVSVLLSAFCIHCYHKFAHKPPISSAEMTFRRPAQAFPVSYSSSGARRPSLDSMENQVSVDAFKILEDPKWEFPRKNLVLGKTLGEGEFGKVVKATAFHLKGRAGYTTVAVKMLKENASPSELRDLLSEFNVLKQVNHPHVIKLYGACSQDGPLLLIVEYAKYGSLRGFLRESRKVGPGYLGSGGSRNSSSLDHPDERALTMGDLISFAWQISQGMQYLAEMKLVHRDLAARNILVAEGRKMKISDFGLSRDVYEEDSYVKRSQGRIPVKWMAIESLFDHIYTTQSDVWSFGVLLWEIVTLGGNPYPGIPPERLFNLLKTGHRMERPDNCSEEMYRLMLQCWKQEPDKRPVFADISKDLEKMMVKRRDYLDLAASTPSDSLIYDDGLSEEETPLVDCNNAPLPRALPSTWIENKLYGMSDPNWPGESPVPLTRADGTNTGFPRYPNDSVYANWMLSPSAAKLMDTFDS
ERBB2 (human), sequence (P04626 whole entry, looked up): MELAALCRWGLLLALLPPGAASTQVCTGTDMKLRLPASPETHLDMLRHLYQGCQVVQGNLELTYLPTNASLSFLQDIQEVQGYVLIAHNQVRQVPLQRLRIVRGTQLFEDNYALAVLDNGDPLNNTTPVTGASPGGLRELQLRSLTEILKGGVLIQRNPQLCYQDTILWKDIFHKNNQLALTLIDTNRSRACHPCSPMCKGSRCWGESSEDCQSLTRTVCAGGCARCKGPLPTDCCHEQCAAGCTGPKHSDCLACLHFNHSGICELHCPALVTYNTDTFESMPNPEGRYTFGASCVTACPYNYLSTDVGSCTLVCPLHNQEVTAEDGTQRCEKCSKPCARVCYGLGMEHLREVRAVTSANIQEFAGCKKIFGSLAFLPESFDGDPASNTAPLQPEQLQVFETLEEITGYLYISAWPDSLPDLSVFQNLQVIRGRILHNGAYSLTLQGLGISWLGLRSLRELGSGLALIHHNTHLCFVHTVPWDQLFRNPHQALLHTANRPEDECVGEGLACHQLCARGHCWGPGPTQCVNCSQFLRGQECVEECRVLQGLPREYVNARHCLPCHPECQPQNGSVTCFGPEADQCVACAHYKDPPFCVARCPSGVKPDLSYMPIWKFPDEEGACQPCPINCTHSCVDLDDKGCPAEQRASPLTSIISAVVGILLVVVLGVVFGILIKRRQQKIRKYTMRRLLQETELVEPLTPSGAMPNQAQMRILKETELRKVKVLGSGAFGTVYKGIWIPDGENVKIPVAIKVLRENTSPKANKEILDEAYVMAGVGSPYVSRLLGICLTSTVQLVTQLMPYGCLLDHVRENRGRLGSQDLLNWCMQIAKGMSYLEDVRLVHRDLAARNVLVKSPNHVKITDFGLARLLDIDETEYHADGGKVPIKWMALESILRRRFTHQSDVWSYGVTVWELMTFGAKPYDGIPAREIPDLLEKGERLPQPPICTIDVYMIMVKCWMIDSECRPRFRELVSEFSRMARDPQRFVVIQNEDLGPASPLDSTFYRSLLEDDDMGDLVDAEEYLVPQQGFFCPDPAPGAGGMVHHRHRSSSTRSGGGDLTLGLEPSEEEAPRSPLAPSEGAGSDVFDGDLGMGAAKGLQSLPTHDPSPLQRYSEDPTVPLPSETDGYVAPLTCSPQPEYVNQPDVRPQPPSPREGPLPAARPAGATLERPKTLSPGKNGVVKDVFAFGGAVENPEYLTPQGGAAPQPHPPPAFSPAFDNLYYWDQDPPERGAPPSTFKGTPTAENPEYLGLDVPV
CDK3 (human), sequence (Q00526 whole entry, looked up): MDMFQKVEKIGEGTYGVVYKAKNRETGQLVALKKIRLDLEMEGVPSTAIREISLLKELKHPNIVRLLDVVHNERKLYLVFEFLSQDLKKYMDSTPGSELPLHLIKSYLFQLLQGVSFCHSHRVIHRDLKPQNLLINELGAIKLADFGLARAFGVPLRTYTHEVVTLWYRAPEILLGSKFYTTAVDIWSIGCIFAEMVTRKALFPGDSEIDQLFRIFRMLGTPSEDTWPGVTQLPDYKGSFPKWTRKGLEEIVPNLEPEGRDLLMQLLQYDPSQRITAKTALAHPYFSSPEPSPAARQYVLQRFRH

| SMILES | kinase still bound, per cent of control (CDC2L2 (human)) [%] | kinase still bound, per cent of control (FGR (human)) [%] | kinase still bound, per cent of control (DDR2 (human)) [%] | kinase still bound, per cent of control (MAPKAPK5 (human)) [%] | kinase still bound, per cent of control (RPS6KA6 KD2 (human)) [%] | kinase still bound, per cent of control (SRMS (human)) [%] | kinase still bound, per cent of control (MAPK15 (human)) [%] | kinase still bound, per cent of control (RET (human)) [%] | kinase still bound, per cent of control (CDK3 (human)) [%] | kinase still bound, per cent of control (MST4 (human)) [%] | kinase still bound, per cent of control (DYRK1B (human)) [%] | kinase still bound, per cent of control (FGFR3 (human)) [%] | kinase still bound, per cent of control (ADCK3 (human)) [%] | kinase still bound, per cent of control (CDC42BPB (human)) [%] | kinase still bound, per cent of control (SRPK3 (human)) [%] | kinase still bound, per cent of control (FRK (human)) [%] | kinase still bound, per cent of control (ERBB2 (human)) [%] | kinase still bound, per cent of control (AURKB (human)) [%] | kinase still bound, per cent of control (PRKD1 (human)) [%] | kinase still bound, per cent of control (ULK3 (human)) [%] | also measured |
| --- | --- | --- | --- | --- | --- | --- | --- | --- | --- | --- | --- | --- | --- | --- | --- | --- | --- | --- | --- | --- | --- |
| O=C(NOC[C@H](O)CO)c1ccc(F)c(F)c1Nc1ccc(I)cc1F | 100 | 95 | 100 | 100 | 80 | 95 | 100 | 90 | 69 | 77 | 98 | 100 | 86 | 83 | 100 | 60 | 100 | 99 | 100 | 89 | kinase still bound, per cent of control (MAPK1 (human)): 100%; kinase still bound, per cent of control (LATS1 (human)): 100%; kinase still bound, per cent of control (TGFBR1 (human)): 100%; kinase still bound, per cent of control (CLK2 (human)): 96%; kinase still bound, per cent of control (PIK3CD (human)): 40%; kinase still bound, per cent of control (AKT2 (human)): 100%; kinase still bound, per cent of control (ACVR2A (human)): 80%; kinase still bound, per cent of control (DAPK2 (human)): 100%; kinase still bound, per cent of control (HIPK1 (human)): 91%; kinase still bound, per cent of control (MAP3K5 (human)): 91%; kinase still bound, per cent of control (ULK2 (human)): 97%; kinase still bound, per cent of control (ERBB4 (human)): 100%; kinase still bound, per cent of control (MAPK14 (human)): 100%; kinase still bound, per cent of control (TLK2 (human)): 98%; kinase still bound, per cent of control (PKN2 (human)): 100%; kinase still bound, per cent of control (PHKG1 (human)): 100%; kinase still bound, per cent of control (PRKG1 (human)): 100%; kinase still bound, per cent of control (CAMK2B (human)): 100%; kinase still bound, per cent of control (LIMK2 (human)): 100%; kinase still bound, per cent of control (RPS6KA6 KD1 (human)): 75% |
| O=C(NC1CC1)c1cccc(-c2ccc3c(NC(=O)C4CC4)n[nH]c3c2)c1 | 85 | 100 | 90 | 99 | 60 | 93 | 2.9 | 86 | 7.2 | 94 | 89 | 100 | 78 | 76 | 10 | 89 | 100 | 30 | 100 | 13 | kinase still bound, per cent of control (MAPK1 (human)): 100%; kinase still bound, per cent of control (LATS1 (human)): 61%; kinase still bound, per cent of control (TGFBR1 (human)): 77%; kinase still bound, per cent of control (CLK2 (human)): 37%; kinase still bound, per cent of control (PIK3CD (human)): 85%; kinase still bound, per cent of control (AKT2 (human)): 91%; kinase still bound, per cent of control (ACVR2A (human)): 92%; kinase still bound, per cent of control (DAPK2 (human)): 87%; kinase still bound, per cent of control (HIPK1 (human)): 28%; kinase still bound, per cent of control (MAP3K5 (human)): 100%; kinase still bound, per cent of control (ULK2 (human)): 77%; kinase still bound, per cent of control (ERBB4 (human)): 95%; kinase still bound, per cent of control (MAPK14 (human)): 2%; kinase still bound, per cent of control (TLK2 (human)): 79%; kinase still bound, per cent of control (PKN2 (human)): 78%; kinase still bound, per cent of control (PHKG1 (human)): 76%; kinase still bound, per cent of control (PRKG1 (human)): 100%; kinase still bound, per cent of control (CAMK2B (human)): 84%; kinase still bound, per cent of control (LIMK2 (human)): 98%; kinase still bound, per cent of control (RPS6KA6 KD1 (human)): 91% |
